In patent US20070231296A1, “Method of Combating Fruit Flies” (priority 2004, published 2007):

How the values were obtained:
Bactrocera tryoni = test: Large field cage trial with a paper mâché block containing fipronil plus Cue-lure; type: in vivo; settings: field cage 4×4×2.5 m, single paper mâché block with 20 milligrams of fipronil plus Cue-lure per cage
Text: In a large field cage (4×4×2.5 m) trial, a single block of paper mâché containing 20 milligrams of fipronil plus Cue-lure was used per cage.
After 2 days of exposure, over 90% mortality of male and female Bactrocera tryoni was achieved, after 3 days even over 95% mortality of males and females.
Dead females were collected from the floor of the cage and dissected.

fruit flies = test: Contact of male fruit flies with AMULET parapheromone stations and transfer to females; type: in vivo; settings: AMULET station, 20 mg fipronil per station; depending on length of contact
Method: AMULET™ parapheromone stations use fipronil at a very low concentration (20 mg per station) that has no repulsion to male flies landing on the device allowing them to freely imbibe from its surface and walk over it for long periods. Female fruit flies of the same species are not attracted by the pheromone and do no show any interest in the stations.
Through this contact they contaminate the integument of the female that subsequently dies the following day.

N#Cc1nn(-c2c(Cl)cc(C(F)(F)F)cc2Cl)c(N)c1[S+]([O-])C(F)(F)F (stereo not drawn) [fipronil]
mortality of male and female Bactrocera tryoni (Bactrocera tryoni; after 2 days of exposure): over 90%
mortality of males and females (Bactrocera tryoni; after 3 days): over 95%
time after contact until male fruit flies die (fruit flies): 3 to 48 h
